The target of the test is T1, Human PD-L1/PD-1 (Homo sapiens, UniProt Q9NZQ7).
T1 construct: TVMV protease cleavage site (C); made in house; host or cells: HEK293T cells
The experiment in a line: HTRF Human PD-L1/PD-1 binding assay (PD-1-Ig/PD-L1-His). As to conditions: PD-L1-His 10 nM, PD-1-Ig 20 nM; class symbol; read-out: HTRF Human PD-L1/PD-1 Binding Assay IC50 Range. In short, it runs like this:
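HTRF read-out (665/620 nm ratio) after 30 min equilibration with Eu-cryptate anti-Ig mAb (1 nM) and APC anti-His mAb (20 nM). Peptides preincubated 15 min with PD-L1-His (10 nM), then PD-1-Ig (20 nM) added for 15 min.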
In general terms: TR-FRET usually uses a lanthanide donor and a delayed reading to cut background.

The structures appear in SMILES notation. *1 amine or outer side, *2 acyl side, *3 side chain or, on linkers, in order; H or OH if unused. Where a SMILES comes first, the peptide text is derived from it. Bridges are numbered along the chain shown (N, C = ends). [ ]: non-standard residue; d: D form. The star is where a group is joined. X5 = O=C(O)CC[C@H](N[*:1])C(=O)C1C[C@H](O)C[C@H]1C(=O)[*:2]; Pro(trans-4-F) = O=C(O)[C@@H]1C[C@@H](F)CN1; Phe(4-Cl) = N[C@@H](Cc1ccc(Cl)cc1)C(=O)O; Phe(4-F) = N[C@@H](Cc1ccc(F)cc1)C(=O)O; Hyp = O=C(O)[C@@H]1C[C@@H](O)CN1; NMeNle = CCCC[C@H](NC)C(=O)O; NMeA = CN[C@@H](C)C(=O)O; Orn = NCCC[C@H](N)C(=O)O; Dab = NCC[C@H](N)C(=O)O; Dap = NC[C@H](N)C(=O)O; Propionyl = CCC(=O)*

T1 sequence (Q9NZQ7 with tags, fused parts or gaps): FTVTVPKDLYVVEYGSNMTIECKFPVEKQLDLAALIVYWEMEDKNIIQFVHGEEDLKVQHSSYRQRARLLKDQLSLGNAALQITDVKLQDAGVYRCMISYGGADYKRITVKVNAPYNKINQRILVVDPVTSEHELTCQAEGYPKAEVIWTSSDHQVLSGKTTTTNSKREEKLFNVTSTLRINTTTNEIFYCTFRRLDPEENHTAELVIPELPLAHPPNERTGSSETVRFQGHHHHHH

For `CCCC[C@H]1C(=O)N(C)[C@@H](CCCC)C(=O)N[C@@H](CCCNC(=N)N)C(=O)N[C@H](C(=O)NCC(N)=O)CSCC(=O)N[C@@H](Cc2ccc(Cl)cc2)C(=O)N(C)[C@@H](C)C(=O)N[C@@H](CC(N)=O)C(=O)N2CCC[C@H]2C(=O)N[C@@H](Cc2cnc[nH]2)C(=O)N[C@@H](CCC(=O)O)C(=O)C2C[C@H](O)C[C@H]2C(=O)N[C@@H](Cc2c[nH]c3ccccc23)C(=O)N[C@@H](CCN)C(=O)N[C@@H](Cc2c[nH]c3ccccc23)C(=O)N1C` (some centres unmarked) [Example 7079] ({CH2CO}-[Phe(4-Cl)][NMeA]NPH[X5]W[Dab]W[NMeNle][NMeNle]RCG-NH2; thioether N-13), the IC50 lay within 1 to 9.9 nM.

In the case of `CCCC[C@H]1C(=O)N(C)[C@@H](CCCC)C(=O)N[C@@H](CCCNC(=N)N)C(=O)N[C@H](C(=O)NCC(N)=O)CSCC(=O)N[C@@H](Cc2ccc(Cl)cc2)C(=O)N(C)[C@@H](C)C(=O)N[C@@H](CC(N)=O)C(=O)N2CCC[C@H]2C(=O)N[C@@H](Cc2cnc[nH]2)C(=O)N[C@@H](CCC(=O)O)C(=O)N2C[C@H](O)C[C@H]2C(=O)N[C@@H](Cc2c[nH]c3ccccc23)C(=O)N[C@@H](CO)C(=O)N[C@@H](Cc2c[nH]c3ccccc23)C(=O)N1C` [Example 7080] ({CH2CO}-[Phe(4-Cl)][NMeA]NPHE[Hyp]WSW[NMeNle][NMeNle]RCG-NH2; thioether N-14), the IC50 lay in the range of 10 to 99.9 nM. On to `CCCC[C@H]1C(=O)N(C)[C@@H](CCCC)C(=O)N[C@@H](CCCNC(=N)N)C(=O)N[C@H](C(=O)NCC(N)=O)CSCC(=O)N[C@@H](Cc2ccc(F)cc2)C(=O)N(C)[C@@H](C)C(=O)N[C@@H](CC(N)=O)C(=O)N2CCC[C@H]2C(=O)N[C@@H](Cc2cnc[nH]2)C(=O)N[C@@H](CCC(=O)O)C(=O)N2C[C@H](O)C[C@H]2C(=O)N[C@@H](Cc2c[nH]c3ccccc23)C(=O)N[C@@H](CCN)C(=O)N[C@@H](Cc2c[nH]c3ccccc23)C(=O)N1C` [Example 7081] ({CH2CO}-[Phe(4-F)][NMeA]NPHE[Hyp]W[Dab]W[NMeNle][NMeNle]RCG-NH2; thioether N-14), for which the IC50 fell in the range of 1 to 9.9 nM. Consider `CCCC[C@H]1C(=O)N(C)[C@@H](CCCC)C(=O)N[C@@H](CCCNC(=N)N)C(=O)N[C@H](C(=O)NCC(N)=O)CSCC(=O)N[C@@H](Cc2ccc(F)cc2)C(=O)N(C)[C@@H](C)C(=O)N[C@@H](CC(N)=O)C(=O)N2CCC[C@H]2C(=O)N[C@@H](Cc2cnc[nH]2)C(=O)N[C@@H](CCC(=O)O)C(=O)N2C[C@H](O)C[C@H]2C(=O)N[C@@H](Cc2c[nH]c3ccccc23)C(=O)N[C@@H](CO)C(=O)N[C@@H](Cc2c[nH]c3ccccc23)C(=O)N1C` [Example 7082] ({CH2CO}-[Phe(4-F)][NMeA]NPHE[Hyp]WSW[NMeNle][NMeNle]RCG-NH2; thioether N-14), for which the IC50 was in the range of 1 to 9.9 nM. The figure for `CCCC[C@H]1C(=O)N(C)[C@@H](CCCC)C(=O)N[C@@H](CCCNC(=O)CC)C(=O)N[C@H](C(=O)NCC(N)=O)CSCC(=O)N[C@@H](Cc2ccc(OC)cc2)C(=O)N(C)[C@@H](C)C(=O)N[C@@H](CC(N)=O)C(=O)N2CCC[C@H]2C(=O)N[C@@H](CC(N)=O)C(=O)N[C@@H](CC(C)C)C(=O)N2C[C@H](F)C[C@H]2C(=O)N[C@@H](Cc2c[nH]c3ccccc23)C(=O)N[C@@H](C)C(=O)N[C@@H](Cc2c[nH]c3ccccc23)C(=O)N1C` [Example 7083] ({CH2CO}-Y(Me)[NMeA]NPNL[Pro(trans-4-F)]WAW[NMeNle][NMeNle][Orn](Propionyl)CG-NH2; thioether N-14) is 10 to 99.9 nM; for `CCCC[C@H]1C(=O)N(C)[C@@H](CCCC)C(=O)N[C@@H](CCCN)C(=O)N[C@H](C(=O)NCC(N)=O)CSCC(=O)N[C@@H](Cc2ccc(OC)cc2)C(=O)N(C)[C@@H](C)C(=O)N[C@@H](CC(N)=O)C(=O)N2CCC[C@H]2C(=O)N[C@@H](CC(N)=O)C(=O)N[C@@H](CC(C)C)C(=O)N2C[C@H](F)C[C@H]2C(=O)N[C@@H](Cc2c[nH]c3ccccc23)C(=O)N[C@@H](C)C(=O)N[C@@H](Cc2c[nH]c3ccccc23)C(=O)N1C` [Example 7084] ({CH2CO}-Y(Me)[NMeA]NPNL[Pro(trans-4-F)]WAW[NMeNle][NMeNle][Orn]CG-NH2; thioether N-14) it is 1 to 9.9 nM; for `CCCC[C@H]1C(=O)N(C)[C@@H](CCCC)C(=O)N[C@@H](CCCNC(=N)N)C(=O)N[C@H](C(=O)NCC(N)=O)CSCC(=O)N[C@@H](Cc2ccc(OC)cc2)C(=O)N(C)[C@@H](C)C(=O)N[C@@H](CC(N)=O)C(=O)N2CCC[C@H]2C(=O)N[C@@H](Cc2cnc[nH]2)C(=O)N[C@@H](CCC(=O)O)C(=O)C2C[C@H](O)C[C@H]2C(=O)N[C@@H](Cc2c[nH]c3ccccc23)C(=O)N[C@@H](CCN)C(=O)N[C@@H](Cc2c[nH]c3ccccc23)C(=O)N1C` (some centres unmarked) [Example 7085] ({CH2CO}-Y(Me)[NMeA]NPH[X5]W[Dab]W[NMeNle][NMeNle]RCG-NH2; thioether N-13) it is 1 to 9.9 nM. Regarding `CCCC[C@H]1C(=O)N(C)[C@@H](CCCC)C(=O)N[C@@H](CCCNC(=N)N)C(=O)N[C@H](C(=O)NCC(N)=O)CSCC(=O)N[C@@H](Cc2ccc(OC)cc2)C(=O)N(C)[C@@H](C)C(=O)N[C@@H](CC(N)=O)C(=O)N2CCC[C@H]2C(=O)N[C@@H](Cc2cnc[nH]2)C(=O)N[C@@H](CCC(=O)O)C(=O)N2C[C@H](O)C[C@H]2C(=O)N[C@@H](Cc2c[nH]c3ccccc23)C(=O)N[C@@H](CO)C(=O)N[C@@H](Cc2c[nH]c3ccccc23)C(=O)N1C` [Example 7086] ({CH2CO}-Y(Me)[NMeA]NPHE[Hyp]WSW[NMeNle][NMeNle]RCG-NH2; thioether N-14), the IC50 is 1 to 9.9 nM. For the compound `CCCC[C@H]1C(=O)N(C)[C@@H](CCCC)C(=O)N[C@@H](CCCN)C(=O)N[C@H](C(=O)NCC(N)=O)CSCC(=O)N[C@@H](Cc2ccc(OC)cc2)C(=O)N(C)[C@@H](C)C(=O)N[C@@H](CC(N)=O)C(=O)N2CCC[C@H]2C(=O)N[C@@H](Cc2cnc[nH]2)C(=O)N[C@@H](CCC(=O)O)C(=O)C2C[C@H](O)C[C@H]2C(=O)N[C@@H](Cc2c[nH]c3ccccc23)C(=O)N[C@@H](CCN)C(=O)N[C@@H](Cc2c[nH]c3ccccc23)C(=O)N1C` (some centres unmarked) [Example 7087] ({CH2CO}-Y(Me)[NMeA]NPH[X5]W[Dab]W[NMeNle][NMeNle][Orn]CG-NH2; thioether N-13), the IC50 was 1 to 9.9 nM. The figure for `CCCC[C@H]1C(=O)N(C)[C@@H](CCCC)C(=O)N[C@@H](CCCN)C(=O)N[C@H](C(=O)NCC(N)=O)CSCC(=O)N[C@@H](Cc2ccc(OC)cc2)C(=O)N(C)[C@@H](C)C(=O)N[C@@H](CC(=O)O)C(=O)N2CCC[C@H]2C(=O)N[C@@H](CN)C(=O)N[C@@H](CCCCN)C(=O)N2C[C@H](O)C[C@H]2C(=O)N[C@@H](Cc2c[nH]c3ccccc23)C(=O)N[C@@H](CCN)C(=O)N[C@@H](Cc2c[nH]c3ccccc23)C(=O)N1C` [Example 7089] ({CH2CO}-Y(Me)[NMeA]DP[Dap]K[Hyp]W[Dab]W[NMeNle][NMeNle][Orn]CG-NH2; thioether N-14) is 1 to 9.9 nM; for `CCCC[C@H]1C(=O)N(C)[C@@H](CCCC)C(=O)N[C@@H](CCCN)C(=O)N[C@H](C(=O)NCC(N)=O)CSCC(=O)N[C@@H](Cc2ccc(OC)cc2)C(=O)N(C)[C@@H](C)C(=O)N[C@@H](CCN)C(=O)N2CCC[C@H]2C(=O)N[C@@H](Cc2cnc[nH]2)C(=O)N[C@@H](CCC(=O)O)C(=O)N2C[C@H](O)C[C@H]2C(=O)N[C@@H](Cc2c[nH]c3ccccc23)C(=O)N[C@@H](CCN)C(=O)N[C@@H](Cc2c[nH]c3ccccc23)C(=O)N1C` [Example 7090] ({CH2CO}-Y(Me)[NMeA][Dab]PHE[Hyp]W[Dab]W[NMeNle][NMeNle][Orn]CG-NH2; thioether N-14) it is 1 to 9.9 nM. Turning to `CCCC[C@H]1C(=O)N(C)[C@@H](CCCC)C(=O)N[C@@H](CCCN)C(=O)N[C@H](C(=O)NCC(N)=O)CSCC(=O)N[C@@H](Cc2ccc(OC)cc2)C(=O)N(C)[C@@H](C)C(=O)N[C@@H](CC(N)=O)C(=O)N2CCC[C@H]2C(=O)N[C@@H](CN)C(=O)N[C@@H](CCC(=O)O)C(=O)N2C[C@H](O)C[C@H]2C(=O)N[C@@H](Cc2c[nH]c3ccccc23)C(=O)N[C@@H](CCN)C(=O)N[C@@H](Cc2c[nH]c3ccccc23)C(=O)N1C` [Example 7091] ({CH2CO}-Y(Me)[NMeA]NP[Dap]E[Hyp]W[Dab]W[NMeNle][NMeNle][Orn]CG-NH2; thioether N-14), the IC50 was 1 to 9.9 nM. As to `CCCC[C@H]1C(=O)N(C)[C@@H](CCCC)C(=O)N[C@@H](CCCN)C(=O)N[C@H](C(=O)NCC(N)=O)CSCC(=O)N[C@@H](Cc2ccc(OC)cc2)C(=O)N(C)[C@@H](C)C(=O)N[C@@H](CCN)C(=O)N2CCC[C@H]2C(=O)N[C@@H](CN)C(=O)N[C@@H](CCC(=O)O)C(=O)N2C[C@H](O)C[C@H]2C(=O)N[C@@H](Cc2c[nH]c3ccccc23)C(=O)N[C@@H](CCN)C(=O)N[C@@H](Cc2c[nH]c3ccccc23)C(=O)N1C` [Example 7092] ({CH2CO}-Y(Me)[NMeA][Dab]P[Dap]E[Hyp]W[Dab]W[NMeNle][NMeNle][Orn]CG-NH2; thioether N-14), the IC50 fell in the range of 10 to 99.9 nM. For `CCCC[C@H]1C(=O)N(C)[C@@H](CCCC)C(=O)N[C@@H](CCCN)C(=O)N[C@H](C(=O)NCC(N)=O)CSCC(=O)N[C@@H](Cc2ccc(OC)cc2)C(=O)N(C)[C@@H](C)C(=O)N[C@@H](CC(N)=O)C(=O)N2CCC[C@H]2C(=O)N[C@@H](Cc2cnc[nH]2)C(=O)N[C@@H](CCCCN)C(=O)N2C[C@H](O)C[C@H]2C(=O)N[C@@H](Cc2c[nH]c3ccccc23)C(=O)N[C@@H](CCN)C(=O)N[C@@H](Cc2c[nH]c3ccccc23)C(=O)N1C` [Example 7093] ({CH2CO}-Y(Me)[NMeA]NPHK[Hyp]W[Dab]W[NMeNle][NMeNle][Orn]CG-NH2; thioether N-14), the IC50 is 1 to 9.9 nM.

(Values after patent US10538555B2, “Macrocyclic inhibitors of the PD-1/PD-L1 and CD80(B7-1)/PD-L1 protein/protein interactions” (BRISTOL-MYERS SQUIBB COMPANY, priority 2014, dated 2020).)
